In ChEMBL document CHEMBL4840301, “Homophymamide A, Heterodetic Cyclic Tetrapeptide from a Homophymia sp. Marine Sponge: A Cautionary Note on Configurational Assignment of Peptides That Contain a Ureido Linkage” (J Nat Prod, 2021):

Molecular target: T1, Carboxypeptidase B (Sus scrofa, UniProt P09955)
T1 sequence (P09955 whole entry): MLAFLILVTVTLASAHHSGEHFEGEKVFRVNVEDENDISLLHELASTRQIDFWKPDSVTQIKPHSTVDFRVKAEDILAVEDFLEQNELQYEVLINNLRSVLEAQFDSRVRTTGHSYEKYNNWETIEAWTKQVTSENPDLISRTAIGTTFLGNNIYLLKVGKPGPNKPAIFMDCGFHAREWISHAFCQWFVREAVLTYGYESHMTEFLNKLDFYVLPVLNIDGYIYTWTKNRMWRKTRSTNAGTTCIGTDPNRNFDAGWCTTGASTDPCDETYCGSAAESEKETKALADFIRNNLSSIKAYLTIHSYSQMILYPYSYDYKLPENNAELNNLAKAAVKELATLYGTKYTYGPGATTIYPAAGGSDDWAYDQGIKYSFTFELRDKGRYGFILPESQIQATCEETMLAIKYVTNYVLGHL
Test: Inhibition of carboxypeptidase B in porcine pancreas using hippuryl-L-Arg as substrate preincubated with substrate for 2 mins followed by enzyme addition and measured after 5 mins by colorimetric method
Format: tissue-based

- IC50: 590 nM
SMILES: CC[C@H](C)[C@@H]1NC(=O)[C@H](CC(C)C)N(C)C(=O)[C@H](C)NC(=O)[C@H](NC(=O)N[C@@H](CCCNC(=N)N)C(=O)O)CCCCNC1=O
